ChEMBL document CHEMBL2390917, “Synthesis and biological evaluation of 2-(5-methyl-4-phenyl-2-oxopyrrolidin-1-yl)-acetamide stereoisomers as novel positive allosteric modulators of sigma-1 receptor” (Bioorg Med Chem, 2013)

What was measured:
[1] = molecular target: Type-2 angiotensin II receptor (Homo sapiens) (UniProt P50052); assay: Binding affinity to human angiotensin AT2 receptor at 10 uM by radioligand displacement assay relative to control
[2] = organism: Homo sapiens; assay: Binding affinity to GABA-gated chloride channel (unknown origin) at 10 uM by radioligand displacement assay relative to control
[3] = tested on: Mus musculus; assay: Toxicity in ICR mouse assessed as effect on locomotor activity measured moved distance per 4 mins at 10 mg/kg, ip after 240 mins by open field test (reference value: 398 70 cm); format: organism-based; design: dose 10 mg/kg, route intraperitoneal; conditions: in vivo
[4] = molecular target: C-X-C chemokine receptor type 2 (Homo sapiens) (UniProt P25025); assay: Binding affinity to human CXCR2 at 10 uM by radioligand displacement assay relative to control
[5] = tested on: Mus musculus; assay: Toxicity in ICR mouse assessed as effect on locomotor activity measured moved distance per 4 mins at 10 mg/kg, ip after 180 mins by open field test (reference value: 436 125 cm); format: organism-based; design: dose 10 mg/kg, route intraperitoneal; conditions: in vivo
[6] = molecular target: Kappa-type opioid receptor (Homo sapiens) (UniProt P41145); assay: Binding affinity to kappa opioid receptor (unknown origin) at 10 uM by radioligand displacement assay relative to control
[7] = molecular target: D(3) dopamine receptor (Homo sapiens) (UniProt P35462); assay: Binding affinity to human dopamine D3 receptor at 10 uM by radioligand displacement assay relative to control
[8] = molecular target: 5-hydroxytryptamine receptor 2A (Homo sapiens) (UniProt P28223); assay: Binding affinity to human 5-HT2A receptor at 10 uM by radioligand displacement assay relative to control
[9] = molecular target: Substance-K receptor (Homo sapiens) (UniProt P21452); assay: Binding affinity to human NK2 receptor at 10 uM by radioligand displacement assay relative to control
[10] = tested on: Mus musculus; assay: Toxicity in ICR mouse assessed as effect on locomotor activity measured moved distance per 4 mins at 10 mg/kg, ip after 60 mins by open field test (reference value: 623 136 cm); format: organism-based; design: dose 10 mg/kg, route intraperitoneal; conditions: in vivo
[11] = tested on: Mus musculus; assay: Toxicity in ICR mouse assessed as effect on locomotor activity measured moved distance per 4 mins at 100 mg/kg, ip after 240 mins by open field test (reference value: 398 70 cm); format: organism-based; design: dose 100 mg/kg, route intraperitoneal; conditions: in vivo
[12] = molecular target: B2 bradykinin receptor (Homo sapiens) (UniProt P30411); assay: Binding affinity to human bradykinin B2 receptor at 10 uM by radioligand displacement assay relative to control
[13] = tested on: Mus musculus; assay: Toxicity in ICR mouse assessed as effect on locomotor activity measured moved distance per 4 mins at 1 mg/kg, ip after 30 mins by open field test (reference value: 1124 121 cm); format: organism-based; design: dose 1 mg/kg, route intraperitoneal; conditions: in vivo
[14] = tested on: Mus musculus; assay: Toxicity in ip dosed ICR mouse assessed as effect on motor performance measured within 30 secs by chimney test; format: organism-based; conditions: in vivo, 0.5 min
[15] = tested on: Mus musculus; assay: Toxicity in ip dosed ICR mouse assessed as effect on motor coordination measured within 120 secs by rotarod test; format: organism-based; conditions: in vivo, 2 min
[16] = tested on: Mus musculus; assay: Toxicity in ip dosed ICR mouse assessed as effect on motor strength measured within 5 secs by traction test; format: organism-based; conditions: in vivo, 5 s
[17] = organism: Homo sapiens; assay: Binding affinity to sodium channel site 2 (unknown origin) at 10 uM by radioligand displacement assay relative to control
[18] = molecular target: Cholecystokinin receptor type A (Homo sapiens) (UniProt P32238); assay: Binding affinity to human CCK1 receptor at 10 uM by radioligand displacement assay relative to control
[19] = tested on: Mus musculus; assay: Toxicity in ICR mouse assessed as effect on locomotor activity measured moved distance per 4 mins at 100 mg/kg, ip after 30 mins by open field test (reference value: 1124 121 cm); format: organism-based; design: dose 100 mg/kg, route intraperitoneal; conditions: in vivo
[20] = molecular target: Calcitonin gene-related peptide type 1 receptor (Homo sapiens) (UniProt Q16602); assay: Binding affinity to human CGRP receptor at 10 uM by radioligand displacement assay relative to control
[21] = molecular target: Melanocortin receptor 4 (Homo sapiens) (UniProt P32245); assay: Binding affinity to human MC4 receptor at 10 uM by radioligand displacement assay relative to control
[22] = molecular target: Muscarinic acetylcholine receptor M1 (Homo sapiens) (UniProt P11229); assay: Binding affinity to human muscarinic M1 receptor at 10 uM by radioligand displacement assay relative to control
[23] = molecular target: Adrenergic receptor alpha-2 (Homo sapiens) (UniProt P08913+P18825+P18089); assay: Binding affinity to human adrenergic alpha2 receptor at 10 uM by radioligand displacement assay relative to control
[24] = molecular target: 5-hydroxytryptamine receptor 7 (Homo sapiens) (UniProt P34969); assay: Binding affinity to human 5-HT7 receptor at 10 uM by radioligand displacement assay relative to control
[25] = tested on: Mus musculus; assay: Toxicity in ICR mouse assessed as effect on locomotor activity measured moved distance per 4 mins at 100 mg/kg, ip after 180 mins by open field test (reference value: 436 125 cm); format: organism-based; design: dose 100 mg/kg, route intraperitoneal; conditions: in vivo

Sequence of Substance-K receptor (Homo sapiens) (P21452 whole entry): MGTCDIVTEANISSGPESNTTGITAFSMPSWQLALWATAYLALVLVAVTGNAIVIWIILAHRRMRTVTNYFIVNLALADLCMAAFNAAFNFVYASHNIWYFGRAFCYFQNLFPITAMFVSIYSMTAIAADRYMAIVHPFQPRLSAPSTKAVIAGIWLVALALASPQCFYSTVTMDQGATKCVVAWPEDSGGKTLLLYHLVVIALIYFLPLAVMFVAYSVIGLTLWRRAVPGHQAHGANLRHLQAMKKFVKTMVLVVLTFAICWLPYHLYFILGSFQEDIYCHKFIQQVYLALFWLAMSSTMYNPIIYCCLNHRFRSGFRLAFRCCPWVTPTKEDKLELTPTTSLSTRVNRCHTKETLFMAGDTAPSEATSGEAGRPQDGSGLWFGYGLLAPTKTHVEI
Sequence of B2 bradykinin receptor (Homo sapiens) (P30411 whole entry): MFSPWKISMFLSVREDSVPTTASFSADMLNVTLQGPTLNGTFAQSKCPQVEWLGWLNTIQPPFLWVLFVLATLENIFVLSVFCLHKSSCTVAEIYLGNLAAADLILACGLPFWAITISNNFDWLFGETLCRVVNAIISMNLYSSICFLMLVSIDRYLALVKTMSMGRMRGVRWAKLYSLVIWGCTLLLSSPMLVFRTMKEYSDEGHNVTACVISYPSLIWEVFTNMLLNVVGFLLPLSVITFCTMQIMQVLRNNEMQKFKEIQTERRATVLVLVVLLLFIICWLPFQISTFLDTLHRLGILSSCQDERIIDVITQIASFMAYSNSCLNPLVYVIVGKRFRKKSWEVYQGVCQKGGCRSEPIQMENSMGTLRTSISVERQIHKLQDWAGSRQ
Sequence of Muscarinic acetylcholine receptor M1 (Homo sapiens) (P11229 whole entry): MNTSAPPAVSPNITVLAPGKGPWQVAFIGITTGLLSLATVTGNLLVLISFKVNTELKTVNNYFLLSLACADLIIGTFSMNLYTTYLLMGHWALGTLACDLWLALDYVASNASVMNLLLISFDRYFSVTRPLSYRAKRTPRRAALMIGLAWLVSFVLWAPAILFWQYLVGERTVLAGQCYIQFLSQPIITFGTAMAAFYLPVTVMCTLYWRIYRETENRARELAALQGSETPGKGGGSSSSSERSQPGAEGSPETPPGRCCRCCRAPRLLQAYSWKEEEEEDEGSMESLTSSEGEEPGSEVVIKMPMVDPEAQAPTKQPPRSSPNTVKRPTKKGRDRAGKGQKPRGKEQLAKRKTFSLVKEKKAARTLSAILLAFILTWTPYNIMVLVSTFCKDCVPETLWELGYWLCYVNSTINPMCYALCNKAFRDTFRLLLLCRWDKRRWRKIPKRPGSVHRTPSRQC
Sequence of Melanocortin receptor 4 (Homo sapiens) (P32245 whole entry): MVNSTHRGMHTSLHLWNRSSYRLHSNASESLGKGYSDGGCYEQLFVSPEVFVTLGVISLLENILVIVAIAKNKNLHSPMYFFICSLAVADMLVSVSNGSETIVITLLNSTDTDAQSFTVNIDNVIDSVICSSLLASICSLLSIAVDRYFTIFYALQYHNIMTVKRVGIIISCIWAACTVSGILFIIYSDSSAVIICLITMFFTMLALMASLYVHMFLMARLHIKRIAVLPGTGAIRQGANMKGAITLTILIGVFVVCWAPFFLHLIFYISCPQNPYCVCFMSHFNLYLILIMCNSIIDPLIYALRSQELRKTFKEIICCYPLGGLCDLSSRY
Sequence of D(3) dopamine receptor (Homo sapiens) (P35462 whole entry): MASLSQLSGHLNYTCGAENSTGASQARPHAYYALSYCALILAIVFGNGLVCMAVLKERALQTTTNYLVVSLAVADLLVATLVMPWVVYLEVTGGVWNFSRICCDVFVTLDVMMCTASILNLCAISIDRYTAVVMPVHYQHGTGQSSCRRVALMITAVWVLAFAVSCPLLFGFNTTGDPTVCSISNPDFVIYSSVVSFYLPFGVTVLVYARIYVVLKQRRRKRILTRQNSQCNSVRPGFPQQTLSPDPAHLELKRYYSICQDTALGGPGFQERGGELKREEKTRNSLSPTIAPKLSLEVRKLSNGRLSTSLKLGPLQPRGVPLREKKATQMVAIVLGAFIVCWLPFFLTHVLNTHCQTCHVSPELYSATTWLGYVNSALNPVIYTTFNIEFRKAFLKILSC
Sequence of Cholecystokinin receptor type A (Homo sapiens) (P32238 whole entry): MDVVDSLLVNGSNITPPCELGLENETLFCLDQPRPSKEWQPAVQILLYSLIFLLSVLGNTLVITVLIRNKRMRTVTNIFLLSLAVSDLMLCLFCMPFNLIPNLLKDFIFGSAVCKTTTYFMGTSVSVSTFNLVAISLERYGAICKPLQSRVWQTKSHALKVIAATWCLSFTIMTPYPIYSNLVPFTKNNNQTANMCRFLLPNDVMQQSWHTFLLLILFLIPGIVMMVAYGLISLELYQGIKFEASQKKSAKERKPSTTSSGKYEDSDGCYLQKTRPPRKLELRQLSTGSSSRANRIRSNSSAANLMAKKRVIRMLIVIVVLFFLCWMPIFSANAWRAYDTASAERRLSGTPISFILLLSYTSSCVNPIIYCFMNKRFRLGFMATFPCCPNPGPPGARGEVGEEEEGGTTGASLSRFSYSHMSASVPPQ
Sequence of Type-2 angiotensin II receptor (Homo sapiens) (P50052 whole entry): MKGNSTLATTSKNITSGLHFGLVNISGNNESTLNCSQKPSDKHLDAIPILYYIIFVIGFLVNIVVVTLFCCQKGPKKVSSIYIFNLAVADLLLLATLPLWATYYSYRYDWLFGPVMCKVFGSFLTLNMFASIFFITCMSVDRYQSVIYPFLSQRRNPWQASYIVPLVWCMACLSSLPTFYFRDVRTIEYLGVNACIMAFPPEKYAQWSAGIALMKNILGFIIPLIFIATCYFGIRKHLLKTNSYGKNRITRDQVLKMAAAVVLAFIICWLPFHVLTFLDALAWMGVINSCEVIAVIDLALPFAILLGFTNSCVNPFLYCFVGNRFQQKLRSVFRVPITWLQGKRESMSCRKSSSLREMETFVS
Sequence of Kappa-type opioid receptor (Homo sapiens) (P41145 whole entry): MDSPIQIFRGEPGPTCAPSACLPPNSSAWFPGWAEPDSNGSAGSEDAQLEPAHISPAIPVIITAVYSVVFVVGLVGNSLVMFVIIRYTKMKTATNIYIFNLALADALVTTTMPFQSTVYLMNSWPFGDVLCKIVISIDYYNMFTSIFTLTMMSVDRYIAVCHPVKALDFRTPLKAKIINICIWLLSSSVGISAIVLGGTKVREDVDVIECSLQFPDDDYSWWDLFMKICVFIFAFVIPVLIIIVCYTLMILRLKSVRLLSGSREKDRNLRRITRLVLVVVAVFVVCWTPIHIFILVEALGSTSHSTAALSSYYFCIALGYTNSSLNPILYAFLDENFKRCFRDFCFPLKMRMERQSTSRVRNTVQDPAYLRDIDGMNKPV
Sequence of 5-hydroxytryptamine receptor 7 (Homo sapiens) (P34969 whole entry): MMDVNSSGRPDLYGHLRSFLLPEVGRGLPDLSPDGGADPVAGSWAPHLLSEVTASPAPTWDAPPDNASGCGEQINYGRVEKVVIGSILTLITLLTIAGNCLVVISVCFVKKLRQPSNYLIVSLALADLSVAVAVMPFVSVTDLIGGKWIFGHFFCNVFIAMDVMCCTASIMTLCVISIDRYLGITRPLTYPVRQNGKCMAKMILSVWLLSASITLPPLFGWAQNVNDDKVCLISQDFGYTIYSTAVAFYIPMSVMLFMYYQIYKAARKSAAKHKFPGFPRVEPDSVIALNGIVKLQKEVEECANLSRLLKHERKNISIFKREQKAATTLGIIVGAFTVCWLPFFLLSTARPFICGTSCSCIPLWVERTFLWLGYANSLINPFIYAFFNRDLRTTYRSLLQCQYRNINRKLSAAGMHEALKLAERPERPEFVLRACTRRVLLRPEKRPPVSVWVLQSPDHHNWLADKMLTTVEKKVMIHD
Sequence of Calcitonin gene-related peptide type 1 receptor (Homo sapiens) (Q16602 whole entry): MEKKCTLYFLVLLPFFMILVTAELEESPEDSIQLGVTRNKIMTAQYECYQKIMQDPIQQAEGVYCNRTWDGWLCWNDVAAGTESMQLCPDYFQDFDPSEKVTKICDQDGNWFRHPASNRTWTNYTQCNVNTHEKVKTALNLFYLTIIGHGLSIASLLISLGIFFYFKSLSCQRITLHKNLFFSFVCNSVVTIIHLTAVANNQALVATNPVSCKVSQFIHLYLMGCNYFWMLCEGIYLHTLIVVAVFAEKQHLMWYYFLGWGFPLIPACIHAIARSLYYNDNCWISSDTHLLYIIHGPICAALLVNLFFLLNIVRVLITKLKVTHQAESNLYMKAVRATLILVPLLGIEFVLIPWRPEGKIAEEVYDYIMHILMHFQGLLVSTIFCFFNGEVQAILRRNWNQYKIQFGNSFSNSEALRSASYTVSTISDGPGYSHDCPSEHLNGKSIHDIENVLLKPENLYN
Sequence of 5-hydroxytryptamine receptor 2A (Homo sapiens) (P28223 whole entry): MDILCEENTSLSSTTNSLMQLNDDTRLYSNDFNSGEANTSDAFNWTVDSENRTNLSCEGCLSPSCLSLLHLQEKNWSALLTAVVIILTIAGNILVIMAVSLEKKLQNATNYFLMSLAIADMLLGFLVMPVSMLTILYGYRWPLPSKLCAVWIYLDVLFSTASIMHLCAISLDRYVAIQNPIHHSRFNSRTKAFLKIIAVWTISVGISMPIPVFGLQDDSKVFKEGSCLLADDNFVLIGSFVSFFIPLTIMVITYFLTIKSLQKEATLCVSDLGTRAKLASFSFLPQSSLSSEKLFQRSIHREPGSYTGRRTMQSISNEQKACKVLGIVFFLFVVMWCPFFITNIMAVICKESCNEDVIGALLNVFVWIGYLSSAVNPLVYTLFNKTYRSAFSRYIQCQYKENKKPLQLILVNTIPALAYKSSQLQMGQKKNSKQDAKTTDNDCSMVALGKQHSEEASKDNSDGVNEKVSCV
Sequence of C-X-C chemokine receptor type 2 (Homo sapiens) (P25025 whole entry): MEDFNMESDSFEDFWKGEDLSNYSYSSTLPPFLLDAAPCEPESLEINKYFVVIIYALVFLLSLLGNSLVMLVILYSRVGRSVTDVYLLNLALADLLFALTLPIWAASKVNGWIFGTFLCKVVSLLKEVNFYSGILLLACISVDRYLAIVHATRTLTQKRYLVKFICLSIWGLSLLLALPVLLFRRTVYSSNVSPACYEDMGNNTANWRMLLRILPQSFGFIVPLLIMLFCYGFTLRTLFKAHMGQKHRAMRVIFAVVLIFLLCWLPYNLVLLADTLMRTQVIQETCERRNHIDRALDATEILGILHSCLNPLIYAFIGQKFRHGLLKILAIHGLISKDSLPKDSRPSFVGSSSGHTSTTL

C[C@H]1[C@@H](c2ccccc2)CC(=O)N1CC(N)=O
inhibition [1]: -5% | inhibition [2]: -3% | Activity [3]: 359 cm | inhibition [4]: 2% | Activity [5]: 406 cm | inhibition [6]: -5% | inhibition [7]: 7% | inhibition [8]: 5% | inhibition [9]: -3% | Activity [10]: 640 cm | Activity [11]: 458 cm | inhibition [12]: 3% | Activity [13]: 1402 cm | ED50 [14]: 349 mg/kg | ED50 [15]: 453 mg/kg | ED50 [16]: 595 mg/kg | inhibition [17]: 5% | inhibition [18]: 9% | Activity [19]: 1076 cm | inhibition [20]: 1% | inhibition [21]: 4% | inhibition [22]: -4% | inhibition [23]: -2% | inhibition [24]: -4% | Activity [25]: 450 cm
